Assay results: patent publication US12552854B2, “Peptides that block presentation of antigenic islet peptides by HLA-DQ8 and methods for treating type-1 diabetes” (Icahn School of Medicine at Mount Sinai, priority 2019, dated 2026)
Entries after “also recorded” stand apart in the source; their conditions may differ.

Columns and labels:
[1] = Metabolic stability in mouse hepatocytes; type: in vitro ADME; settings: mouse, hepatocytes; 1 μM; read-out: half-life after incubation with mouse hepatocytes (converted)
Experimental: Cryopreserved mouse hepatocytes were thawed at 37° C. in water bath until the ice was almost melted (˜90 seconds). The suspensions from the each were immediately transferred to 50 mL centrifuge tubes containing pre-warmed thawing media (VitroGRO HT Medium, Thawing) at 37° C. The cell suspensions were centrifuged at 50 g for 5 minutes at 4° C. (SYS679). Supernatants were discarded and the pellets were re-suspended in pre-warmed 3 mL incubation media (from in vitroGRO HT Medium, Incubation) at 37° C. The percentages of viable cells in the suspension were determined by using the Trypan Blue stain method (20 μL of tryptan blue and 20 μL of cell suspension) DF=2. Cryo mouse hepatocyte (Bioreclamation, lot #CHV) viability was 72.62% (viable/dead=305/115), and the total cells were 4.57 million. 1.57 mL of incubation media was added to cell concentration to get 1 million cells/mL. 10 μl of 100 μM test compounds stock in ACN:H2O (v:v, 1:1) was added to 990 μl of hepatocyte suspension/incubation media in a 24-well plate. 10 μl of 20 μM Midazolam was added to 990 μl of hepatocyte suspension as a positive control in a 24-well plate. The cells were incubated in a 37° C. incubator (SYS431) for 4 hours. 50 μl of aliquots (n=2) were added to 800 ul of MeOH:water (v:v, 5:95) at 0, 15, 30, 60, 120, 180 and 240 minutes. For all samples, 20 μL of internal standard (200 ng/mL tolbutamide) was added to the solution in water. The samples were vortexed vigorously for 5 minutes and then loaded onto a pre-conditioned Oasis HLB 96-well SPE plate (10 mg, […]). The Oasis HLB 96-well SPE plate was conditioned with 1 mL of methanol and then rinsed with 1 mL of water before the samples were loaded. Once loaded onto the Oasis HLB 96-well SPE plate, residual solution was removed by vacuum. The samples were eluted into a clean 96-well plate with 800 μL of 0.1% formic acid in 70% acetonitrile. The samples were evaporated to dryness under nitrogen at ambient temperature using a TurboVap 96 Concentration Workstation (Caliper Life Sciences). […]

[2] = system: T-cells of InsB:9-23-immunized SJL-DQ8 mice; assay: In vivo D-peptide treatment of InsB:9-23-immunized SJL-DQ8 humanized mice; parameters: species or system mouse; settings: 200 μg intraperitoneally on days 4, 7, 11 and 14; sacrifice day 17
[3] = Half-life and Intrinsic Clearance of RI-CT and RI-EXT (1 µM) after Incubation with Mouse Hepatocytes
Experimental: Table printed on a drawing sheet, FIG. 20
Title: Half-life and Intrinsic Clearance of RI-CT and RI-EXT (1 µM) after Incubation with Mouse Hepatocytes
First reader's note: The footnotes are printed inside the table frame as its last two rows; midazolam is a small-molecule positive control.

[4] = system: splenocytes isolated from SJL-DQ8 mice; assay: Ex vivo CFSE T-cell proliferation, splenocytes of InsB:9-23-immunized SJL-DQ8 mice; type: cell-based, mouse; settings: all peptides at 50 μg/ml; 5 days
From the text: ID NO: 23) and reverse primer [NT]

[5] = target: T1, HLA-DQ8 expressed on BSM cells (Homo sapiens, UniProt P01909+P01920, F237L); assay: Flow cytometric analysis of InsB:9-23 peptide binding to BSM cells; type: cell-based; settings: flow cytometry
T1 construct: BSM cells that express HLA-DQ8 on their surface; host or cells: BSM cells (B-cell line homozygous for HLA-DQ8)
T1 sequence (P01920 33-261 A45G/Y58L/E77G/D89A/H199R/T217I, other chains not shown): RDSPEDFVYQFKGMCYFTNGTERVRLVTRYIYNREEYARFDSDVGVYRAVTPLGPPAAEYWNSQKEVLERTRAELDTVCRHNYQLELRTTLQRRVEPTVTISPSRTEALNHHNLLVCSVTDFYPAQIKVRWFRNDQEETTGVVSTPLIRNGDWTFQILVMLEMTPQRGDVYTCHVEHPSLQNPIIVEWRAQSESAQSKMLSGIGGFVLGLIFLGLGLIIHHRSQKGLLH
Experimental: N-terminal biotinylated peptide InsB:9-23 (or gliadin) were used to test for binding to BSM cells that express HLA-DQ8 on their surface. APC-streptavidin (BD Biosciences, Franklin Lakes, NJ) were used to detect the biotinylated peptides. […] After 24 hours incubation, cells were stained with PE-mouse anti-human HLA-DQ8 (BD Biosciences) and APC-streptavidin to detect the percent binding of the peptide to BSM cells with or without D-peptides. Percent binding was analyzed by flow cytometry.

[6] = target: T2, recombinant HLA-DQ8 protein (Homo sapiens, UniProt P01909+P01920); assay: DELFIA immunoassay: inhibition of biotinylated InsB:9-23 binding to recombinant HLA-DQ8; settings: for inhibition of InsB:9-23 binding to HLA-DQ8 (in words): D-peptides screened at 10 μM, recombinant HLA-DQ8
T2 construct: contained the extracellular portion of the DQA1*0301 α chain fused to the coiled-coil region of the basic leucine zipper domain of Fos; contained the extracellular portion of the DQB1*0302 β chain fused to the coiled-coil region of the basic leucine zipper domain of JunB; Fos leucine zipper (coiled-coil region) (C); TEV protease site (internal); His6; JunB leucine zipper (coiled-coil region) (C); FLAG; host or cells: baculovirus system
From the text: HLA-DQ8 protein was produced using the baculovirus system. Two constructs were designed for both the α and the β chains of HLA-DQ8. The β chain construct contained the extracellular portion of the DQB1*0302 β chain fused to the coiled-coil region of the basic leucine zipper domain of JunB, and the α chain construct contained the extracellular portion of the DQA1*0301 α chain fused to the coiled-coil region of the basic leucine zipper domain of Fos. […] A tobacco etch virus protease cutting site was introduced in each chain to allow removal of the dimerization motif. The JunB and Fos dimerization motifs were added in order to allow the α and β chains to dimerize and form the final HLA-DQ8 protein (FIG. 12A). These constructs were used to produce the HLA-DQ8 protein in a baculovirus system using the Life Technologies Baculovirus protein production custom services (Carlsbad, CA).
D-peptides were produced by Fisher Scientific (Hanover Park, IL) in dry form and dissolved in PBS. All D-peptides were screened at a concentration of 10 μM for their ability to bind to the HLA-DQ8 pocket and block it from binding the InsB:9-23 peptide using a unique immunoassay (23). […] After washing 4 times, DELFIA Europium-labeled streptavidin (PerkinElmer) diluted in DELFIA assay buffer (PerkinElmer) was added for 30 minutes and shaken at slow speed at room temperature. Since the InsB:9-23 peptide was biotinylated the complex HLA-DQ8-InsB:9-23 peptide could be detected using the Europium-labeled streptavidin. After washing for 6 times, DELFIA Enhancement Solution was added for 1 hour or until the optimal signal was reached. Time-resolved fluorescence was measured using the BMG reader (BMG Labtech, Cary, NC). The experiment was performed in triplicate. As a negative control biotinylated InsB:9-23 peptide that was not pre-incubated with HLA-DQ8 was added to the nickel coated plates.
Immunoassay was performed as described above.

[7] = system: PBMCs isolated from DQ8 positive T1D patients; assay: CFSE T-cell proliferation in PBMCs from DQ8 positive recent-onset T1D patients; type: cell-based, human; settings: all peptides at 50 μg/ml
From the text: (§1) Subjects with a diagnosis of T1D within the previous 2 years were recruited from the Pediatric Endocrine clinic at Children Hospital at Montefiore and from the adult Endocrine clinics at Montefiore and Mount Sinai Hospitals (New York). Peripheral blood mononuclear cells (PBMCs) were isolated from heparinized blood using Ficoll-Paque (GE Healthcare); freshly isolated PBMCs were used for T-cell activation studies and for genotyping. DNA purified from the blood of the patients was typed for HLA-DQ as previously described (32). PBMCs isolated from DQ8 positive patients were seeded in 96 well plates with 200 μl medium (RPMI, 10% FBS). […] The stimulated PBMCs were assessed for cytokine production and T-cell proliferation as described above for mouse splenocytes. DQ8 typed patients with long standing T1D (>10 years) were used as negative controls in the experiments (no T-cell responses to islet peptides).

[8] = system: PBMCs isolated from DQ8 positive T1D patients; assay: Cytokine production in PBMCs from DQ8 positive recent-onset T1D patients; type: cell-based, human; settings: stimulated with InsB:9-23 for 48 h; all peptides at 50 μg/ml
From the text: as §1

[9] = system: 5KC cells (TCR specific for the InsB:9-23-DQ8 complex) with BSM cells; assay: Mixed lymphocyte reaction (BSM cells loaded with InsB:9-23 and 5KC cells), IL-2 by Luminex; type: cell-based, human, murine; settings: peptide loaded on BSM cells
Experimental: BSM cells homozygous for HLA-DQ8 (European Collection of Authenticated Cell Cultures) were cultured in RPMI growth medium (ATCC, Manassas, VA) supplied with 10% fetal bovine serum (FBS) (Sigma), 1% penicillin-streptomycin (Corning, NY), and 2 mM glutamine (Corning). Cells were grown at 37° C., 5% CO2, and passaged 1-2 times a week. 5KC cells (generously provided by Dr. Maki Nakayama, University of Colorado, Denver) were produced and cultured as described (25, 26).
To functionally test in vitro D-peptides ability to block T-cell activation, 10^6 BSM cells were incubated over night with 200 μg/ml InsB:9-23 (or with scrambled InsB:9-23 or gliadin as negative peptides); on the following day InsB:9-23 loaded BSM cells were washed twice with phosphate buffered saline (PBS) to remove excess peptide and RI-CT or RI-EXT peptides (or scrambled RI-CT/RI-EXT, as negative controls) were added to the cells. Following 2 hours of incubation at 37° C. 5KC cells were added to the mixture BSM-InsB:9-23-D-peptides (1:1 proportion) and incubated overnight. 5KC cells are transfected with human T-cell receptor that is activated only upon engagement with HLA-DQ8-InsB:9-23 complex. […] After overnight incubation of the 5KC cells with BSM cells loaded with InsB:9-23 and with different D-peptides IL-2 production was measured in the supernatants by Luminex assay. […]

| Compound | half-life [1] [h] | activation of T-cells by InsB:9-23 in immunized mice (IL-2, IFN-γ of splenocytes) [2] | CLint (mL/min/million cells) [3] [mL/min/million cells] | t1/2 [3] [h] | T-cell proliferation induced by InsB:9-23 (CFSE assay), SJL-DQ8 splenocytes [4] | inhibition of the binding of InsB:9-23 to DQ8 expressed on BSM cells (in words) ([5]; 10 μM peptide) | inhibition of InsB:9-23 binding to HLA-DQ8 (in words) [6] | inhibition of InsB:9-23 binding to HLA-DQ8 (in words) ([6]; listed as #10) | dose dependence of the inhibition of InsB:9-23 binding to HLADQ8 ([6]; serially diluted to 0.5 μM, FIG. 3D) | T-cell proliferation induced by InsB:9-23 (CFSE assay), PBMCs of DQ8 positive T1D patients [7] | IFN-γ production, PBMCs of DQ8 positive T1D patients [8] | IL-2 production, PBMCs of DQ8 positive T1D patients [8] | binding of InsB:9-23 to HLA-DQ8 positive BSM cells ([5]; incubated without D-peptides) [%] | binding to the recombinant HLA-DQ8 protein ([6]; biotinylated peptide, compared to scrambled InsB:9-23, FIG. 3B) | induction of IL-2 secretion in 5KC cells / activation of 5KC cells [9] |
| --- | --- | --- | --- | --- | --- | --- | --- | --- | --- | --- | --- | --- | --- | --- | --- |
| CC(C)C[C@@H](NC(=O)[C@@H](Cc1ccc(O)cc1)NC(=O)[C@@H](CC(C)C)NC(=O)[C@H](NC(=O)[C@@H](CS)NC(=O)CNC(=O)[C@@H](CCC(=O)O)NC(=O)[C@@H](CCCNC(=N)N)NC(=O)CNC(=O)CNC(=O)[C@@H](Cc1ccccc1)NC(=O)[C@H](N)Cc1ccccc1)C(C)C)C(=O)N[C@H](C)C(=O)N[C@H](CCC(=O)O)C(=O)N[C@@H](C(=O)N[C@H](CC(C)C)C(=O)N[C@H](Cc1c[nH]cn1)C(=O)N[C@H](CO)C(=O)NCC(=O)O)C(C)C [RI-EXT] | ~1 | significantly blocked | 0.012 | 0.963 | significantly suppressed; also recorded: significantly decreased | inhibits the binding | significant inhibition | best extended sequence | dose-dependent | significantly suppressed; also recorded: significantly decreased | significantly suppressed; also recorded: significantly decreased | significantly suppressed; also recorded: significantly decreased | – | – | – |
| SHLVEALYLVCGERG [InsB:9-23, diabetogenic insulin peptide, reference compound] | – | – | – | – | – | – | – | – | – | – | – | – | 84.8 | significant binding | dose-dependent manner |
